Data published in patent US9573975B2, “Melanoma antigen peptide and uses thereof” (INSERM (INSTITUT NATIONAL DE LA SANTE ET DE LA RECHERCHE …, priority 2012, dated 2017).

Key:
[1] = system: MELOE-1 specific T cell clones; assay: HLA restriction of MELOE-1 specific T cell clones (anti-HLA blocking antibodies, HLA-matched B-EBV cell lines); assay type: cell-based, human
Description: FIG. 3: HLA-restricting element of MELOE-1 specific T cell clones and reactivity against HLA-matched melanoma cell lines. The HLA restriction of MELOE-1 specific T cell clones was first assessed using anti-HLA blocking antibodies (upper panel). T cell clones were stimulated for 5 hours in the presence of brefeldin A (10 μg/mL) either with peptide alone (10 μM) in an autopresentation assay and in presence or not of blocking antibodies at a concentration of 12.5 μg/mL. HLA restriction was confirmed with HLA-matched B-EBV cell lines pulsed 2 hrs with the cognate peptide, at a ratio 1:2 (middle panel). Reactivity of each T cell clone against HLA-class II expressing melanoma cells was assessed, in presence or not of exogeneous peptide (lower panel). After 5 hours of stimulation, cells were then stained with APC-conjugated anti-CD4 mAb, fixed with 4% paraformaldehyde, labeled with PE-conjugated anti-TNF-α mAb and analyzed by flow cytometry.
(§1) Lymphocytes were stimulated for 5 hours in the presence of brefeldin A (10 μg/mL) either with peptide alone (10 μM) in an autopresentation assay or with B-EBV or HLA-class II expressing melanoma cells pulsed 2 hours with the cognate peptide, at a ratio 1:2. In some experiments, blocking mAb against HLA-DP (clone B7.21 from Dr Charron, UMR940, Paris), HLA-DQ (clone SPVL3, Beckman Coulter) or HLA-DR (clone L243, BD Biosciences) were added at a concentration of 12.5 μg/ml. Cells were then stained with APC-conjugated anti-CD4 mAb, fixed with 4% paraformaldehyde, labeled with PE-conjugated anti-cytokine mAb and analyzed by flow cytometry.
In order to formally characterize the recognized epitopes, we derived CD4 T cell clones specific for each region of MELOE-1 by limiting dilution, from microcultures of healthy donors or melanoma patients, containing at least 0.5% of specific CD4 T cells. We succeeded to derive CD4 specific T cell clones from HD17, HD22, HD25 and Pt≠3 microcultures, which were reactive against MELOE-12-21 (HD22), MELOE-111-30 (HD17 and Pt≠3) and MELOE-126-46 (HD25). From each cloning experiment, we obtained between one and ten reactive CD4 T cell clones, that turned out to be the same clonotype after CDR3B sequencing (Table IV). A single CD4 T cell clone for each specificity was used for further experiments. The HLA-restriction was determined for each T cell clone, first by using HLA-class II blocking monoclonal antibodies (FIG. 3, upper panel), and further by testing the recognition of HLA-matched B-EBV cell lines loaded with each recognized long peptide (FIG. 3 middle panel). The two T cell clones named 9C12 and 4E2, derived from HD22 and HD25 and specific for MELOE-12-21 and MELOE-126-46 were restricted by the HLA-DQβ1*0202 and the DQβ1*0201 molecules respectively. […]

[2] = system: CD4 T cells in PBMC from melanoma patients; assay: PBMC from melanoma patients stimulated with MELOE-1, restimulated with peptides, CD4/IFN-γ and CD4/IL4 staining; assay type: cell-based, human; conditions: for Th1 responses, share of tested microcultures: of 576 tested microcultures, melanoma patients; for melanoma patients with CD4 specific responses (mainly Th1, IFN-g production) / melanoma patients with Th2 responses: responding/tested patients; for melanoma patients with Th2 responses: IL4
Description: FIG. 2: (A) Percentages of cytokine producing CD4 T cells among positive microcultures. Fourteen days after PBMC stimulation with MELOE-1 whole polypeptide (2-46), microcultures were re-stimulated with each indicated peptide during 5 hours. IFN-γ (left panel) and IL4 (right panel) production was then assessed by a triple labeling IFN-γ-IL4-CD4. Results were analyzed with a non-parametric test (Kruskal-Wallis) followed by a Dunns post-test. (B) Frequency of microcultures containing CD4 T cells specific for MELOE-1 peptides (assessed by IFN-γ or IL4 intracellular staining after re-stimulation with the 3 indicated peptides). 576 microcultures (from 10 melanoma patients) were analyzed by a contingency table followed by a Fisher exact test.
PBMC from melanoma patients were stimulated with 10 μM of MELOE-1. After 14 days, the presence of CD4 T cells specific for the different regions of MELOE-1 was assessed by restimulating cells with MELOE-12-21, MELOE-111-30 and MELOE-122-46 peptides, followed by CD4/IFN-γ double staining for the detection of Th1 responses, and by CD4/IL4 double staining for Th2 responses. Between brackets is indicated the mean % of cytokine producing CD4 T cells, in positive microcultures.
PBMC from healthy donors or melanoma patients (2·10^5 cells/well) were cultured for 14 days with 10 μM of MELOE-1 whole antigen (46 amino acids) in RPMI medium supplemented with 8% HS, 50 IU/ml of rIL-2 (Chiron, France) and L-Glutamin, in 96-well multiplates. Micro cultures were then restimulated individually with each overlapping peptide (MELOE-12-21, MELOE-111-30, MELOE-118-37, MELOE-126-46 or MELOE-122-46 for melanoma patients) in the presence of 10 μg/mL brefeldin A for 5 hours and the percentage of CD4^+ specific T cells was assessed by TNF-α, IFN-γ or IL-4 intracellular staining A negative control without peptide was included in all experiments.
as §1
In order to confirm the immunogenicity of each MELOE-1 regions in melanoma patients, we stimulated melanoma patients PBMC with the MELOE-1 whole protein, and tested the reactivity of stimulated lymphocytes towards the three most immunogenic regions: 2-21, 11-30, and 22-46. For this study, instead of challenging microcultures with the 18-37 peptide, that appeared poorly immunogenic, we extended the C-terminus region from 26-46 to 22-46, in order to also detect responses to our previously described HLA-DR11-restricted epitope (24-37). […] We tested the induction of CD4 specific responses from MELOE-1 stimulated PBMC of 10 melanoma patients. We documented CD4 responses specific for the central region of MELOE-1 (11-30) for 7/9 patients, whereas responses specific for MELOE-12-21 and MELOE-122-46 were respectively detected in 4/9 and 5/9 patients (Table III). These responses were mainly Th1 responses (IFN-g production) while less frequent Th2 responses specific for the three regions of MELOE-1 were detected in 3/9 patients for MELOE-12-21, 2/9 patients for MELOE-111-30 and 5/9 patients for MELOE-122-46 (Table III). […] Concerning Th2 responses, much less frequent, the C-term region appeared to induce more frequently the growth of IL-4 producing CD4 T cells than the two other regions (FIG. 2A). […]

“SCVGYPDEATSREQFLPSEG (SCVGYPDEATSREQFLPSEC) [MELOE-12-21]” was tested, and the “HLA-restricting element of the peptide-specific T cell clone” value (“HLA-restricting element” for short) ([1]; T cell clone 9C12 (from HD22)) was “HLA-DQβ1*0202”, the “mean % of cytokine producing CD4 T cells, in positive microcultures (IFN-γ, Th1)” value (from here on “mean % … (IFN-γ, Th1)”) ([2]; Pt ≠ 1) was “(0.7%)” and the “mean % … (IFN-γ, Th1)” value ([2]; Pt ≠ 2) was “(0.8% ± 0.2)”. The “mean % … (IFN-γ, Th1)” value ([2]; Pt ≠ 3) was “(1.7% ± 2.9)”, the “mean % of cytokine producing CD4 T cells, in positive microcultures (IL4, Th2)” value (“mean % … (IL4, Th2)” below) ([2]; Pt ≠ 4) was “(0.7%)” and the “mean % … (IFN-γ, Th1)” value ([2]; Pt ≠ 5) was “(0.6%)”. For the same sequence, the “mean % … (IL4, Th2)” value ([2]; Pt ≠ 5) was “(0.7% ± 0.1)”, the “mean % … (IL4, Th2)” value ([2]; Pt ≠ 9) was “(0.6%)” and the “Th1 responses, share of tested microcultures” value [2] was 3.3%. The “melanoma patients with CD4 specific responses (mainly Th1, IFN-g production)” value [2] was 4/9 and the “melanoma patients with Th2 responses” value [2] was 3/9.
TSREQFLPSEGAACPPWHPS [MELOE-111-30] was tested, and the “HLA-restricting element” value ([1]; T cell clone 1A5) was “HLA-DRβ1*1101”, the “HLA-restricting element” value ([1]; T cell clone 5F9) was “HLA-DRβ1*0101” and the “mean % … (IFN-γ, Th1)” value ([2]; Pt ≠ 1) was “(1.4% ± 0.7)”. The “mean % … (IL4, Th2)” value ([2]; Pt ≠ 1) was “(1%)”, the “mean % … (IFN-γ, Th1)” value ([2]; Pt ≠ 2) was “(1.6% ± 1.2)” and the “mean % … (IFN-γ, Th1)” value ([2]; Pt ≠ 3) was “(16.2% ± 33.2)”. For the same sequence, the “mean % … (IFN-γ, Th1)” value ([2]; Pt ≠ 4) was “(0.9% ± 0.5)”, the “mean % … (IFN-γ, Th1)” value ([2]; Pt ≠ 5) was “(1.5% ± 1.1)” and the “mean % … (IFN-γ, Th1)” value ([2]; Pt ≠ 6) was “(1.5% ± 1.9)”. The “mean % … (IFN-γ, Th1)” value ([2]; Pt ≠ 8) was “(2.9% ± 0.04 )”, the “mean % … (IL4, Th2)” value ([2]; Pt ≠ 9) was “(0.6% ± 0.09)” and the “Th1 responses, share of tested microcultures” value [2] was 10.8%. The “melanoma patients with CD4 specific responses (mainly Th1, IFN-g production)” value [2] was 7/9 and the “melanoma patients with Th2 responses” value [2] was 2/9.
